The values below come from publication PMC9918900, “New Succinimide–Thiazolidinedione Hybrids as Multitarget Antidiabetic Agents: Design, Synthesis, Bioevaluation, and Molecular Modelling Studies” (Molecules, 2023).

Assay [1] deals with streptozotocin-induced diabetic rats. Put plainly: in vivo antidiabetic activity, fasting plasma glucose level. Set-up: species or system Wistar rats. To be noted: STZ-induced diabetic rats, 0.5 mg/kg, 28th day. As for the experimental part:
(§1) The antidiabetic activity of the synthesized compound 10d was evaluated using a streptozotocin-induced diabetic rats model.
(§2) Male Wistar rats weighing 150 to 230 gm were used for the study which were housed in polyacrylic cages (no more than six animals per cage) with dimensions of 38 × 23 × 10 cm and maintained under standard laboratory conditions with a dark/light cycle of 14 h of dark and 10 h of light at a temperature of 25 °C. The animals were provided with a standard diet (dry pellet) and water ad libitum. Before the start of the experimental procedures, the rats were acclimatized to laboratory conditions for 10 days. All the experiments were approved and performed as per the guidelines of the Departmental Research Ethics Committee under letter No. DREC/050 [49].
(§3) Non-insulin-dependent diabetes mellitus was induced in fasted rats weighing 150–230 gm using a single dose of streptozotocin (STZ) at a dose of 60 mg/kg intraperitoneally after 15 min of the administration of nicotinamide at a 120 mg/kg dose i.p. Nicotinamide was prepared in normal saline while in citrate buffer (pH 4.5), STZ was prepared. After the induction of diabetes, the increase in the plasma glucose level was measured at 72 h and then measured on the 7th day to confirm hyperglycemia. For the diagnosis of diabetes, the threshold value of the fasting plasma glucose level was considered to be more than 126 mg/dl. For the study, only the animals with permanent NIIDM were utilized.
The animals were classified into 5 groups with 6 animals in each group (n = 6). […] The fasting glucose concentration was measured on the 0, 7th, 14th, and 28th day of the administration of the extract. During the experimental tenure, the weights of the rats were determined daily and the mean change was recorded.

Assay [2] has the same test system. Put plainly: effect on serum lipid profile of diabetic animals. The conditions noted are these: compared to diabetic control group. Format: in vivo, Wistar rats. How it is done: as §1, §2, §3
(§4) The animals were classified into 5 groups with 6 animals in each group (n = 6). Group I comprised of normal control rats which were daily administered drinking water only; group II served as diabetic control rats (disease group); group III served as the positive control and were administered 0.5 mg/kg of the standard drug glibenclamide; and group IV and V served as the test group rats and were administered the test compound 10d at 10 mg/kg and 20 mg/kg, respectively, for twenty-eight days. The fasting glucose concentration was measured on the 0, 7th, 14th, and 28th day of the administration of the extract. During the experimental tenure, the weights of the rats were determined daily and the mean change was recorded.
(§5) The animals were euthanized (sacrificed) via cervical dislocation on the 28th day to observe the biochemical parameters. The parameters studied were triglyceride (TGL), cholesterol, low-density lipoprotein, and high-density lipoprotein (LDL and HDL). The Minias Globe Diagnostic kits were used for cholesterol and TGL. Semi-autoanalyzers were used for the analysis. The serum samples from the rats were also checked for alanine aminotransferase (ALT), aspartate aminotransferase (AST), lactate dehydrogenase (LDH), serum alkaline phosphatase (ALP), and creatinine and urea levels utilizing commercially available kits of Crest Biosystems. The statistical analysis was also performed as per the previous procedure.

Assay [3] shares this test system. Briefly: effect on body weight. The class given is in vivo, Wistar rats. The conditions noted are these: glibenclamide group, 0.5 mg/kg. How it is done:
as §1, §2, §3, §4

For assay [4] the test system is unchanged. Briefly: liver and renal serum biomarkers. To be noted: 0.5 mg/kg, 28th day. The class given is in vivo, Wistar rats. As for the experimental part:
as §3, §4, §5

The structures appear in SMILES notation.

`COc1ccc(Cl)cc1C(=O)NCCc1ccc(S(=O)(=O)NC(=O)NC2CCCCC2)cc1` [Glibenclamide, glibenclamide, reference compound]: in assay [1], the blood glucose level was 72.44 ± 3.58 mg/dL. Moreover, in assay [2], the HDL level result is on record as “greater than before”, the LDL in serum entry is “significant decline”, the “total cholesterol level in serum” value is given as “significant decline” and the triglyceride in serum result is “significant decline”. For the same compound, in assay [3], the “Change in Body Weight, After Induction” value is on record as 160.52 ± 2.23 gm and the “Change in Body Weight, Before Induction” value is reported as 180.66 ± 1.67 ^ns gm. Moreover, the “Change in Body Weight, After Treatment” value in assay [3] (28 days) was 176.90 ± 4.45 gm. In addition, in assay [4], the ALP was found to be 124.42 ± 2.35 U/L, the ALT amounted to 76.23 ± 2.13 U/L, the AST was found to be 80.36 ± 2.12 U/L and the Creatinine is given as 0.44 ± 0.04 ^ns mg/dl. In assay [4], this compound showed an LDH of 826.21 ± 5.60 U/L and a Urea of 42.45 ± 2.21 mg/dL.
